Measured values reported in patent publication US20240315989A1 (priority 2021, published 2024).
Read-outs that look alike come from different tables or passages of the source.

What was measured:
SARS-CoV-2 infection = experiment: Retrospective cohort (BJC Healthcare): antidepressant exposure and ED or hospital encounter within 30 days; type: in vivo, human; conditions: share of exposed outpatients with an encounter after a positive SARS-CoV-2 test
[1] = test system: COVID-19 (SARS-CoV-2 infection)
[2] = test system: LPS- or fecal slurry-induced inflammatory response; conditions: cited from earlier work; for Survival: wildtype mice, LPS, IRE1-mediated inflammation, fecal-induced peritonitis
[3] = test system: LPS-induced cytokine production; conditions: human peripheral blood; cited from earlier work
[4] = remark: listed apart in the source
Description: All serious and non-serious adverse events were reported to study personnel as per local regulatory requirements. Reportable adverse events included serious adverse events, adverse events resulting in study medication discontinuation, and adverse events assessed as possibly related to study medication.
Because many patients who would ordinarily have been hospitalized were prevented from admission due to hospital over-capacity during peak waves, the composite endpoint addresses both hospitalization and a proxy for hospitalization, retention in a COVID-19 emergency hospital setting. This region of Brazil implemented hospital-like services in the emergency settings with 50-80 bed units providing services including multiday stays, oxygenation, and mechanical ventilation. […] Key secondary outcomes include viral clearance, time to clinical improvement, number of days with respiratory symptoms, time to hospitalization for any cause or due to COVID-19 progression, all-cause mortality and time to death from any causes, WHO clinical worsening scale score, days in hospital and on ventilator and adverse events, adverse reactions to the study medications, and the proportion of participants who are non-adherent with the study drugs.
The TOGETHER trial is the largest placebo-controlled trial of COVID-19 interventions in the world. It currently evaluates drugs for pre-hospitalization.

[5] = Together, N = 741, MedDRA body system

Compound: COCCCC/C(=N\OCCN)c1ccc(C(F)(F)F)cc1.O=C(O)/C=C\C(=O)O [fluvoxamine, 5-methoxy-4′-(trifluoromethyl)valerophenone-(E)-O-(2-aminoethyl)oxime maleate (1:1)]
- Maximum dose tolerated over 15 days 200 mg/day (100 twice daily), % (STOP COVID trial dosing): (45%)
- Maximum dose tolerated over 15 days 200 mg/day (100 twice daily), Number (STOP COVID trial dosing): 36
- Maximum dose tolerated over 15 days 300 mg/day (100 three times daily), % (STOP COVID trial dosing): (50%)
- Maximum dose tolerated over 15 days 300 mg/day (100 three times daily), Number (STOP COVID trial dosing): 40
- Not able to reach 200 mg/day, % (STOP COVID trial dosing): (5%)
- Not able to reach 200 mg/day, Number (STOP COVID trial dosing): 4
- Acute on chronic respiratory failure, % (StopCovid, N = 80): (0%)
- Acute on chronic respiratory failure, number (StopCovid, N = 80): 0
- Bacterial infection, % (StopCovid, N = 80): (1.3%)
- Bacterial infection, number (StopCovid, N = 80): 1
- Chest pain or tightness, % (StopCovid, N = 80): (0%)
- Chest pain or tightness, number (StopCovid, N = 80): 0
- Fever, % (StopCovid, N = 80): (0%)
- Fever, number (StopCovid, N = 80): 0
- Flank pain, % (StopCovid, N = 80): (0%)
- Flank pain, number (StopCovid, N = 80): 0
- Gastroenteritis, nausea, or vomiting, % (StopCovid, N = 80): (1.3%)
- Gastroenteritis, nausea, or vomiting, number (StopCovid, N = 80): 1
- Headache or head pain, % (StopCovid, N = 80): (2.5%)
- Headache or head pain, number (StopCovid, N = 80): 2
- Number of patients with any serious adverse event (StopCovid, N = 80): 1
- Number of patients with any serious adverse event, % (StopCovid, N = 80): (1.3%)
- Number with any adverse event (StopCovid, N = 80): 12
- Number with any adverse event, % (StopCovid, N = 80): (15%)
- Pneumonia, % (StopCovid, N = 80): (3.8%)
- Pneumonia, number (StopCovid, N = 80): 3
- Shortness of breath, % (StopCovid, N = 80): (2.5%)
- Shortness of breath, number (StopCovid, N = 80): 2
- Teeth chattering, % (StopCovid, N = 80): (1.3%)
- Teeth chattering, number (StopCovid, N = 80): 1
- Vasovagal syncope, % (StopCovid, N = 80): (1.3%)
- Vasovagal syncope, number (StopCovid, N = 80): 1
- hypercapnia, % (StopCovid, N = 80): (0%)
- hypercapnia, number (StopCovid, N = 80): 0
- muscle aches, % (StopCovid, N = 80): (1.3%)
- muscle aches, number (StopCovid, N = 80): 1
- Acute respiratory failure, No. of adverse events (%) (n = 80, 15 days): 0 No. (%)
- Bacterial infection, No. of adverse events (%) (n = 80, 15 days): 1 (1.3) No. (%)
- Chest pain or tightness, No. of adverse events (%) (n = 80, 15 days): 0 No. (%)
- Fever, No. of adverse events (%) (n = 80, 15 days): 0 No. (%)
- Flank pain, No. of adverse events (%) (n = 80, 15 days): 0 No. (%)
- Gastroenteritis, nausea, or vomiting, No. of adverse events (%) (n = 80, 15 days): 1 (1.3) No. (%)
- Headache or head pain, No. of adverse events (%) (n = 80, 15 days): 2 (2.5) No. (%)
- Hypercapnia, No. of adverse events (%) (n = 80, 15 days): 0 No. (%)
- Muscle aches, No. of adverse events (%) (n = 80, 15 days): 1 (1.3) No. (%)
- Other adverse events, by No. of patients (%) (n = 80, 15 days): 11 (13.8) No. (%)
- Pneumonia, No. of adverse events (%) (n = 80, 15 days): 3 (3.8) No. (%)
- Serious adverse events, by No. of patients (%) (n = 80, 15 days): 1 (1.3) No. (%)
- Shortness of breath, No. of adverse events (%) (n = 80, 15 days): 2 (2.5) No. (%)
- Teeth chattering, No. of adverse events (%) (n = 80, 15 days): 1 (1.3) No. (%)
- Vasovagal syncope, No. of adverse events (%) (n = 80, 15 days): 1 (1.3) No. (%)
- ED or hospital encounter within 30 days, % (SARS-CoV-2 infection): 21.1%
- Clinical status on 7-point scale, difference between group means vs placebo [1]: −0.22
- Most severe baseline symptom change score, difference between group means vs placebo [1]: 0.3
- 30-d post trial observation events, % ([1]; 30 days after day 15): (1.3) %
- Most severe baseline symptom change score (difference between baseline and final rating) ([1]; day 0 to day 15, 0-10 scale): −5.6
- 30-d post trial observation events, absolute difference vs placebo ([1]; difference in proportions): −0.1
- Absolute difference vs placebo, 7-point scale 0 (none) ([1]; difference in proportions): 8.3
- Absolute difference vs placebo, 7-point scale 1 ([1]; difference in proportions): −2.8
- Absolute difference vs placebo, 7-point scale 3 ([1]; difference in proportions): −4.2
- Absolute difference vs placebo, 7-point scale 5 ([1]; difference in proportions): −1.4
- Absolute difference vs placebo, 7-point scale any nonzero value ([1]; difference in proportions): −8.3
- Clinical status on 7-point scale, mean (SD) ([1]; n = 80): 0
- WHO scale, 0-1 = uninfected or ambulatory, % ([1]; n = 80): (100%)
- WHO scale, 2 = limitation of activities, % ([1]; n = 80): (0%)
- WHO scale, 2 = limitation of activities, No ([1]; n = 80): 0
- WHO scale, 3 = hospitalized, no O2 needed, % ([1]; n = 80): (0%)
- WHO scale, 3 = hospitalized, no O2 needed, No ([1]; n = 80): 0
- WHO scale, 4 = hospitalized, O2 needed, % ([1]; n = 80): (0%)
- WHO scale, 4 = hospitalized, O2 needed, No ([1]; n = 80): 0
- WHO scale, 5 = non-invasive vent or high-flow O2, % ([1]; n = 80): (0%)
- WHO scale, 5 = non-invasive vent or high-flow O2, No ([1]; n = 80): 0
- WHO scale, 6 = ventilator needed, % ([1]; n = 80): (0%)
- WHO scale, 6 = ventilator needed, No ([1]; n = 80): 0
- WHO scale, 7 = ventilator + additional organ support, % ([1]; n = 80): (0%)
- WHO scale, 7 = ventilator + additional organ support, No ([1]; n = 80): 0
- WHO scale, 8 = Death, % ([1]; n = 80): (0%)
- WHO scale, total participants with values >1, % ([1]; n = 80): (0%)
- WHO scale, total participants with values >1, No ([1]; n = 80): 0
- 7-point scale, 1 = O2 sat <92% but no supplemental O2, % ([1]; n = 80, 15 days): (0%)
- 7-point scale, 1 = O2 sat <92% but no supplemental O2, No ([1]; n = 80, 15 days): 0
- 7-point scale, 2 = Above + supplemental O2 needed, % ([1]; n = 80, 15 days): (0%)
- 7-point scale, 2 = Above + supplemental O2 needed, No ([1]; n = 80, 15 days): 0
- 7-point scale, 3 = Above + hospitalization needed, % ([1]; n = 80, 15 days): (0%)
- 7-point scale, 3 = Above + hospitalization needed, No ([1]; n = 80, 15 days): 0
- 7-point scale, 4 = Above + ventilator needed (<3 days), % ([1]; n = 80, 15 days): (0%)
- 7-point scale, 4 = Above + ventilator needed (<3 days), No ([1]; n = 80, 15 days): 0
- 7-point scale, 5 = Above + ventilator needed (≥3 days), % ([1]; n = 80, 15 days): (0%)
- 7-point scale, 5 = Above + ventilator needed (≥3 days), No ([1]; n = 80, 15 days): 0
- 7-point scale, 6 = Death, % ([1]; n = 80, 15 days): (0%)
- 7-point scale, total participants with values >0 (any nonzero value), No ([1]; n = 80, 15 days): 0
- 7-point scale, total participants with values >0, % ([1]; n = 80, 15 days): (0%)
- 30-d post trial observation events (emergency department visit, hospitalization, or both), No. ([1]; of 80, 30 days after day 15): 1
- Effect on endotoxic shock-induced death ([2]; S1R KO animals): no significant effect
- Cytokine levels ([2]; wildtype mice exposed to LPS or fecal slurry): reduced cytokine levels
- Survival [2]: increased survival
- Survival ([2]; listed as FLV): enhanced survival
- LPS-induced cytokine production by human cells [3]: reduce LPS-induced cytokine production
- Treatment emergent adverse event Grade 1, % ([4]; TOGETHER, fluvoxamine group): (3%)
- Treatment emergent adverse event Grade 1, n/N ([4]; TOGETHER, fluvoxamine group): 20/741
- Treatment emergent adverse event Grade 2, % ([4]; TOGETHER, fluvoxamine group): (10%)
- Treatment emergent adverse event Grade 2, n/N ([4]; TOGETHER, fluvoxamine group): 72/741
- Treatment emergent adverse event Grade 3, % ([4]; TOGETHER, fluvoxamine group): (5%)
- Treatment emergent adverse event Grade 3, n/N ([4]; TOGETHER, fluvoxamine group): 38/741
- Treatment emergent adverse event Grade 4, % ([4]; TOGETHER, fluvoxamine group): (3%)
- Treatment emergent adverse event Grade 4, n/N ([4]; TOGETHER, fluvoxamine group): 21/741
- Treatment emergent adverse event Grade 5, % ([4]; TOGETHER, fluvoxamine group): (2%)
- Treatment emergent adverse event Grade 5, n/N ([4]; TOGETHER, fluvoxamine group): 18/741
- Cardiac disorders, % of AEs [4, 5]: (0.6%)
- Cardiac disorders, number of AEs [4, 5]: 1
- Ear and labyrinth disorders, % of AEs [4, 5]: (0.6%)
- Ear and labyrinth disorders, number of AEs [4, 5]: 1
- Gastrointestinal disorders, % of AEs [4, 5]: (9.2%)
- Gastrointestinal disorders, number of AEs [4, 5]: 16
- Hepatobiliary disorders, % of AEs [4, 5]: (0%)
- Hepatobiliary disorders, number of AEs [4, 5]: 0
- Infections and infestations, % of AEs [4, 5]: (49%)
- Infections and infestations, number of AEs [4, 5]: 85
- Metabolism and nutrition disorders, % of AEs [4, 5]: (2.3%)
- Metabolism and nutrition disorders, number of AEs [4, 5]: 4
- Musculoskeletal and connective tissue disorders, % of AEs [4, 5]: (2.3%)
- Musculoskeletal and connective tissue disorders, number of AEs [4, 5]: 4
- Nervous system disorders, % of AEs [4, 5]: (1.7%)
- Nervous system disorders, number of AEs [4, 5]: 3
- Psychiatric disorders, % of AEs [4, 5]: (2.9%)
- Psychiatric disorders, number of AEs [4, 5]: 5
- Renal and urinary disorders, % of AEs [4, 5]: (0.6%)
- Renal and urinary disorders, number of AEs [4, 5]: 1
- Reproductive system and breast disorders, % of AEs [4, 5]: (0.6%)
- Reproductive system and breast disorders, number of AEs [4, 5]: 1
- Respiratory, thoracic and mediastinal disorders, % of AEs [4, 5]: (6.3%)
- Respiratory, thoracic and mediastinal disorders, number of AEs [4, 5]: 11
- Skin and subcutaneous tissue disorders, % of AEs [4, 5]: (0%)
- Skin and subcutaneous tissue disorders, number of AEs [4, 5]: 0
- Vascular disorders, % of AEs [4, 5]: (1.1%)
- Vascular disorders, number of AEs [4, 5]: 2
- N individual AEs ([4]; Together, N = 741 participants): 174
- Participants who stopped owing to issues of tolerability, No. ([4]; of 741): 84
